In US20230241071A1, “COMBINATION TREATMENT OF LIVER DISORDERS” (Terns Pharmaceuticals, Inc., priority 2021, published 2023):
“And” between values parts separate entries of the source, which are not always exact repeats. Identical values can stand only once. “Also recorded” adds a separate entry of the source.

Assays:
[1] = Multiple ascending doses of Compound 2 in healthy subjects with elevated LDL-c; assay type: in vivo, human; conditions: 1, 3, 6, 10 mg QD 14 days
Experimental: Healthy volunteers with mildly elevated LDL-c were randomized 3:1 to Compound 2 (n=6) or placebo (n=2). Volunteers randomized to Compound 2 received multiple doses of 1, 3, 6 or 10 mg of Compound 2 once daily for 14 days in the MAD cohort of the study.

[2] = tested on: DIO-GAN NASH mouse model; assay: Biopsy-confirmed DIO-GAN NASH mice, 12 weeks mono- and combination treatment; assay type: in vivo; conditions: for hepatomegaly (liver weight) / spleen weight / total cholesterol (plasma): vs DIO-GAN vehicle control; for plasma triglycerides: Compound 2-high 10 mg/kg, combinations; for α-SMA (IHC), marker of hepatic stellate cell activation: Compound 3, Compound 2-low and -med, Combo-low
Description: C57BL/6JRj male mice (n=138) were fed the Gubra Amylin NASH (GAN) diet (40% fat, 22% fructose, 2% cholesterol [D09100310, Research Diets]) or lean chow diet for 35 weeks before treatment start. Prior to treatment all animals underwent liver biopsy for histological confirmation (steatosis score ≥2 and fibrosis stage ≥1) and stratification using the nonalcoholic fatty liver disease (NAFLD) activity scoring (NAS) and fibrosis staging system. The diet-induced obese mice on GAN diet (DIO-GAN) were randomized to 8 treatment groups […] based on percent-area of picrosirius red (PSR) staining. DIO-GAN mice (n=16 per group) received treatment (PO, QD) for 12 weeks with vehicle (0.5% HPMC+0.2% Tween-80 in Tris buffer [50 mM, pH 8]), Compound 3 (10 mg/kg), Compound 2 (0.3 mg/kg [low], 2 mg/kg [med], or 10 mg/kg [high]), or combination treatments of Compound 3 with Compound 2 (Combo-low, Combo-med or Combo-high). Vehicle-dosed lean chow-fed controls served as healthy controls (n=10). Mice were maintained on their respective diets (GAN or lean chow) for the duration of the study. Within-subject comparisons (pre- vs. post-treatment) were performed for liver biopsy histopathological scores. Terminal quantitative endpoints included plasma/liver biochemistry, liver histomorphometry, and liver transcriptomic analysis by RNAseq.
Formalin-fixed paraffin-embedded (FFPE) liver biopsies were prepared by placing liver samples into 10% neutral buffered formalin for ˜24 hours and then transferred to 70% ethanol prior to storage at 4 C. FFPE were placed in the Histokinette to infiltrate prior to embedding in blocks. Biopsy tissues were then cut at 3 μm using a microtome and sections were mounted on slides. Liver sections were stained with Hematoxylin and Eosin (H&E) to assess steatosis, inflammation, and ballooning, and PSR to assess fibrosis. Additionally, slides were processed to detect type I collagen (Col1a1), galectin-3 (Gal-3), and smooth muscle actin (α-SMA) protein expression by immunohistochemistry (IHC). For H&E staining, slides were incubated in Mayer's Hematoxylin (Dako), washed with tap water, stained in Eosin Y solution (Sigma-Aldrich), dehydrated, and coverslipped. For PSR, slides were incubated in Weigert's iron hematoxylin (Sigma-Aldrich), washed in tap water, stained in Picro-sirius red (Sigma-Aldrich), and washed twice in acidified water. Excess water was removed by shaking the slides and the slides were then dehydrated with ethanol, cleared in xylene, and cover-slipped. The NAS and fibrosis stage were scored as described previously (Kleiner et al. 2005). NAS represents the unweighted sum of steatosis, inflammation, and ballooning scores and ranges for 0-8 (Table 26); fibrosis stage ranges from 0 (no fibrosis) to 4 (cirrhosis). For detection of Col1a1, Gal-3 and α-SMA, IHC was performed by standard procedures. Briefly, after antigen retrieval and blocking of endogenous peroxidase activity, slides were incubated with primary antibody (Col1a1: Southern Biotech, Cat. 1310-01; Gal-3: Biolegend, Cat. 125402; α-SMA: Abcam Cat. Ab124964). Primary antibody was detected using a polymeric HRP-linker antibody conjugate. Primary antibody was visualized with DAB as chromogen. Finally, sections were counterstained in hematoxylin and cover-slipped.
Terminal blood was harvested by cardiac puncture from mice anesthetized with isoflurane (2-3%), mixed with anticoagulant, and placed at 4 C prior to centrifugation at 3000×g for 10 minutes. Plasma supernatants were transferred to new tubes and immediately frozen on dry ice and stored at −80 C. Alanine transaminase (ALT), Aspartate transaminase (AST), Alkaline phosphatase (ALP), Triglycerides (TGs), Total Cholesterol (TC), High-density lipoprotein (HDL-c), and Low-density lipoprotein (LDL-c) were measured using commercial kits (Roche Diagnostics) on the Cobas c 501 autoanalyzer according to manufacturer's instructions. […]

[3] = 12 wk PO QD, Compound 3 10 mg/kg
[4] = 12 wk PO QD, high: Compound 2 10 mg/kg, alone or (Combo) + Compound 3 10 mg/kg
[5] = 12 wk PO QD, high: Compound 2 10 mg/kg, alone or (Combo) + Compound 3 10 mg/kg, 10 mg/kg
[6] = 12 wk PO QD, low: Compound 2 0.3 mg/kg, alone or (Combo) + Compound 3 10 mg/kg
[7] = 12 wk PO QD, med: Compound 2 2 mg/kg, alone or (Combo) + Compound 3 10 mg/kg
[8] = 12 wk PO QD, single agent 10 mg/kg

SMILES: N#Cc1nn(-c2cc(Cl)c(Oc3n[nH]c(=O)c4ccccc34)c(Cl)c2)c(=O)[nH]c1=O [Compound 2, 2-(3,5-dichloro-4-((4-oxo-3,4-dihydrophthalazin-1-yl)oxy)phenyl)-3,5-dioxo-2,3,4,5-tetrahydro-1,2,4-triazine-6-carbonitrile]
- PK dose proportionality and variability [1]: dose-proportional PK with low variability
- SHBG [1]: increased SHBG
- circulating atherogenic lipid levels (LDL-c, Apo B, total cholesterol, triglycerides) [1]: significant decreases
- free T4 [1]: Dose-dependent declines
- safety and tolerability [1]: generally safe and well-tolerated
- subjects with ALT increase to ≥2×ULN [1]: No subject
- hepatomegaly (liver weight) ([2]; 12 wk PO QD): significantly reduced hepatomegaly
- spleen weight ([2]; 12 wk PO QD): without changes in spleen weight
- total cholesterol (plasma) ([2]; 12 wk PO QD): significantly reduced total cholesterol
- ALT levels relative to DIO-GAN vehicle control ([2]; 12 wk PO QD, Compound 2 low, med, and high): significantly reduced; also recorded: significantly lowered ALT levels
- plasma triglycerides [2, 3]: significantly reduced plasma triglycerides
- α-SMA (IHC), marker of hepatic stellate cell activation ([2]; 12 wk PO QD): Numeric reductions
- Histological steatosis score: mice improving 1-pt [2, 4]: 75%
- Histological steatosis score: mice with no change [2, 4]: 18.75%
- Liver fibrosis stage: mice improving [2, 4]: 6.25%
- Liver fibrosis stage: mice with no change [2, 4]: 68.75%
- Liver fibrosis stage: mice worsening [2, 4]: 25%
- Lobular inflammation: mice improving [2, 4]: 12.5%
- Lobular inflammation: mice with no change [2, 4]: 56.25%
- Lobular inflammation: mice worsening [2, 4]: 31.25%
- NAS: mice improving 1-pt [2, 4]: 37.5%
- NAS: mice with no change [2, 4]: 31.25%
- NAS: mice worsening ≥1-pt [2, 4]: 6.25%
- Histological steatosis score: mice improving >2-pt [2, 5]: 6.25%
- Histological steatosis score: mice improving, Total (at least 1-pt) [2, 5]: 81% and 81.25%
- NAS: mice improving ≥2-pt [2, 5]: 25%
- NAS: mice improving, Total (≥1-pt) [2, 5]: 62% and 62.5%
- Histological steatosis score: mice improving 1-pt [2, 6]: 25%
- Histological steatosis score: mice improving >2-pt [2, 6]: 6.25%
- Histological steatosis score: mice improving, Total (at least 1-pt) [2, 6]: 31% and 31.25%
- Histological steatosis score: mice with no change [2, 6]: 68.75%
- Liver fibrosis stage: mice improving [2, 6]: 6.25%
- Liver fibrosis stage: mice with no change [2, 6]: 62.5%
- Liver fibrosis stage: mice worsening [2, 6]: 31.25%
- Lobular inflammation: mice improving [2, 6]: 6.25%
- Lobular inflammation: mice with no change [2, 6]: 68.75%
- Lobular inflammation: mice worsening [2, 6]: 25%
- NAS: mice improving 1-pt [2, 6]: 31.25%
- NAS: mice improving ≥2-pt [2, 6]: 0%
- NAS: mice improving, Total (≥1-pt) [2, 6]: 31% and 31.25%
- NAS: mice with no change [2, 6]: 56.25%
- NAS: mice worsening ≥1-pt [2, 6]: 12.5%
- Histological steatosis score: mice improving 1-pt [2, 7]: 40%
- Histological steatosis score: mice improving >2-pt [2, 7]: 6.7%
- Histological steatosis score: mice improving, Total (at least 1-pt) [2, 7]: 47% and 46.7%
- Histological steatosis score: mice with no change [2, 7]: 53.33%
- Liver fibrosis stage: mice improving [2, 7]: 13.33%
- Liver fibrosis stage: mice with no change [2, 7]: 60%
- Liver fibrosis stage: mice worsening [2, 7]: 26.7%
- Lobular inflammation: mice improving [2, 7]: 6.7%
- Lobular inflammation: mice with no change [2, 7]: 73.3%
- Lobular inflammation: mice worsening [2, 7]: 20%
- NAS: mice improving 1-pt [2, 7]: 20%
- NAS: mice improving ≥2-pt [2, 7]: 7% and 6.7%
- NAS: mice improving, Total (≥1-pt) [2, 7]: 27% and 26.7%
- NAS: mice with no change [2, 7]: 73.33%
- NAS: mice worsening ≥1-pt [2, 7]: 0%
- number of DEGs vs DIO-GAN vehicle control ([2]; liver RNAseq, Compound 2-low (0.3 mg/kg)): 987

SMILES: Cn1cc(C(=O)O)c2ccc(N3CCC(OCc4c(-c5c(Cl)cccc5Cl)noc4C4CC4)CC3)cc21 [Compound 3]
- Gal-3 expression in the liver (IHC) relative to DIO-GAN vehicle control ([2]; 12 wk PO QD): reduces expression of Galectin-3; also recorded: lower levels of Gal-3 expression
- body weight during the study ([2]; 12 wk PO QD): reduced body weight; also recorded: decreased body weight
- hepatomegaly (liver weight) ([2]; 12 wk PO QD): significantly reduced hepatomegaly
- spleen weight ([2]; 12 wk PO QD): without changes in spleen weight
- total cholesterol (plasma) ([2]; 12 wk PO QD): significantly reduced total cholesterol
- Histological steatosis score: mice improving 1-pt [2, 3]: 81.25%
- Histological steatosis score: mice improving >2-pt [2, 3]: 0%
- Histological steatosis score: mice with no change [2, 3]: 18.75%
- Liver fibrosis stage: mice improving [2, 3]: 6.25%
- Liver fibrosis stage: mice with no change [2, 3]: 56.25%
- Liver fibrosis stage: mice worsening [2, 3]: 37.5%
- Lobular inflammation: mice improving [2, 3]: 0%
- Lobular inflammation: mice with no change [2, 3]: 68.75%
- Lobular inflammation: mice worsening [2, 3]: 31.25%
- plasma triglycerides [2, 3]: significantly reduced plasma triglycerides
- Histological steatosis score: mice improving, Total (at least 1-pt) ([2]; 12 wk PO QD, Compound 3 10 mg/kg, 10 mg/kg): 81% and 81.25%
- body weight at the end of study vs DIO-GAN vehicle control ([2]; 12 wk PO QD, Compound 3 10 mg/kg, Combo = + Compound 2 0.3/2/10 mg/kg): significantly lower
- α-SMA (IHC), marker of hepatic stellate cell activation ([2]; 12 wk PO QD): Numeric reductions
- NAS: mice improving ≥2-pt [2, 8]: 0%
- NAS: mice improving, Total (≥1-pt) [2, 8]: 56%
- fat tissue mass (EchoMRI) ([2]; Week 11): significantly reduced fat tissue mass; also recorded: reduced levels of fat tissue
- Scd1 expression ([2]; liver RNAseq): reduced
- expression of Col1a1, Acta2, Lgals3, CD146 relative to DIO-GAN vehicle control ([2]; liver RNAseq): significantly reduced expression
